Results from patent US20260028326A1, “COMPOUND BASED ON ISOINDOLINE-SUBSTITUTED GLUTARIMIDE BACKBONE AND USE THEREOF” (GLUETACS THERAPEUTICS (SHANGHAI) CO., LTD., priority 2022, published 2026).

What was measured:
MM.1S cells = test: Tumor cell proliferation IC50 (CCK-8), MM.1S; conditions: Homo sapiens, MM1.S, 72 h, read-out: IC50 for inhibiting the proliferation of tumor cells, MM.1S;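 also: viability of cultured cells read by CCK-8 reagent after compound exposure, growth inhibition curves fitted to derive IC50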
Mino cells = test: Tumor cell proliferation IC50 (CCK-8), Mino; conditions: Homo sapiens, 72 h, read-out: IC50 for inhibiting the proliferation of tumor cells, Mino;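 also: cell viability assessed with CCK-8 reagent after compound exposure, IC50 derived from plotted growth inhibition curves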
[1] = target: human Cereblon WT GST-tagged protein (Homo sapiens (Human), UniProt Q96SW2); test: CRBN-binding affinity, HTRF (CEREBLON BINDING kit)
How it was run: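 GST-tagged human WT Cereblon incubated with compound, then Thalidomide-Re tracer and anti-GST Eu antibody added. Displacement read by HTRF, reported as CRBN binding inhibition rate against blank control wells without protein.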

IKZF1 protein = IKZF1 protein (Homo sapiens (Human), UniProt Q13422+Q96SW2); test: Western-blot assay of substrate protein degradation in hPBMC, IKZF1; format: cell-based; conditions: for residual substrate protein level, IKZF1: hPBMC cells, compound 500 nM, 24 hours, Western blot
IKZF3 protein = IKZF3 protein (Homo sapiens (Human), UniProt Q96SW2+Q9UKT9); test: Western-blot assay of substrate protein degradation in hPBMC, IKZF3; format: cell-based; conditions: for residual substrate protein level, IKZF3: hPBMC cells, compound 500 nM, 24 hours, Western blot
GSPT1 protein = GSPT1 protein (Homo sapiens (Human), UniProt P15170+Q96SW2); test: Western-blot assay of substrate protein degradation in hPBMC, GSPT1; format: cell-based; conditions: for residual substrate protein level, GSPT1: hPBMC cells, compound 500 nM, 24 hours, Western blot
[2] = hPBMC, 24 h, serially diluted 0.03-1000 nM

Sequence of IKZF3 protein (Q9UKT9 whole entry): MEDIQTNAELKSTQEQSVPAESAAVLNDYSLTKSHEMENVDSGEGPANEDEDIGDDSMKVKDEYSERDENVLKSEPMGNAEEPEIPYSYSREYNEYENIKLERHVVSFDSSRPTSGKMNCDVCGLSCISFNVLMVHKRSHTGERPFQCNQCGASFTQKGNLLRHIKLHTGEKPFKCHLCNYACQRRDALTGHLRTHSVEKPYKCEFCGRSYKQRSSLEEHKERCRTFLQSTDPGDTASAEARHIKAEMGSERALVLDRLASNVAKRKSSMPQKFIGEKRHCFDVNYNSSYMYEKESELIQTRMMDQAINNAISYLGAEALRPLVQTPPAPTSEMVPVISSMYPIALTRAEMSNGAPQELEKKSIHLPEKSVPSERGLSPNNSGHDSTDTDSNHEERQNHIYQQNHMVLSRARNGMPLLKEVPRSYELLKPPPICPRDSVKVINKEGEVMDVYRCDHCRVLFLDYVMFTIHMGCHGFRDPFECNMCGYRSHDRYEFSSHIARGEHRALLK
Sequence of IKZF3 protein (Q96SW2 whole entry): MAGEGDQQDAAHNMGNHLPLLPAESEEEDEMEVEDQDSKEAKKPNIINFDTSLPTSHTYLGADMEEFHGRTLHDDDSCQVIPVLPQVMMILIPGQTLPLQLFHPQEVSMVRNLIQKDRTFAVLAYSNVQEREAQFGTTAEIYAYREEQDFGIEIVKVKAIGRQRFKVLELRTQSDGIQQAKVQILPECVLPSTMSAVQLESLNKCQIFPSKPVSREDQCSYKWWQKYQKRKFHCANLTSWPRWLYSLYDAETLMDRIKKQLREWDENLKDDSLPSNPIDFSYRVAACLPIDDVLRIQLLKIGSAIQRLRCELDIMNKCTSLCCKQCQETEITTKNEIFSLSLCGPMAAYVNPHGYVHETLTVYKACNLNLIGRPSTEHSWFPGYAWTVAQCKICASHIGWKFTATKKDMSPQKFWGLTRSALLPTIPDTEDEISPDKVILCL
Sequence of IKZF3 protein (Q16531 whole entry partner): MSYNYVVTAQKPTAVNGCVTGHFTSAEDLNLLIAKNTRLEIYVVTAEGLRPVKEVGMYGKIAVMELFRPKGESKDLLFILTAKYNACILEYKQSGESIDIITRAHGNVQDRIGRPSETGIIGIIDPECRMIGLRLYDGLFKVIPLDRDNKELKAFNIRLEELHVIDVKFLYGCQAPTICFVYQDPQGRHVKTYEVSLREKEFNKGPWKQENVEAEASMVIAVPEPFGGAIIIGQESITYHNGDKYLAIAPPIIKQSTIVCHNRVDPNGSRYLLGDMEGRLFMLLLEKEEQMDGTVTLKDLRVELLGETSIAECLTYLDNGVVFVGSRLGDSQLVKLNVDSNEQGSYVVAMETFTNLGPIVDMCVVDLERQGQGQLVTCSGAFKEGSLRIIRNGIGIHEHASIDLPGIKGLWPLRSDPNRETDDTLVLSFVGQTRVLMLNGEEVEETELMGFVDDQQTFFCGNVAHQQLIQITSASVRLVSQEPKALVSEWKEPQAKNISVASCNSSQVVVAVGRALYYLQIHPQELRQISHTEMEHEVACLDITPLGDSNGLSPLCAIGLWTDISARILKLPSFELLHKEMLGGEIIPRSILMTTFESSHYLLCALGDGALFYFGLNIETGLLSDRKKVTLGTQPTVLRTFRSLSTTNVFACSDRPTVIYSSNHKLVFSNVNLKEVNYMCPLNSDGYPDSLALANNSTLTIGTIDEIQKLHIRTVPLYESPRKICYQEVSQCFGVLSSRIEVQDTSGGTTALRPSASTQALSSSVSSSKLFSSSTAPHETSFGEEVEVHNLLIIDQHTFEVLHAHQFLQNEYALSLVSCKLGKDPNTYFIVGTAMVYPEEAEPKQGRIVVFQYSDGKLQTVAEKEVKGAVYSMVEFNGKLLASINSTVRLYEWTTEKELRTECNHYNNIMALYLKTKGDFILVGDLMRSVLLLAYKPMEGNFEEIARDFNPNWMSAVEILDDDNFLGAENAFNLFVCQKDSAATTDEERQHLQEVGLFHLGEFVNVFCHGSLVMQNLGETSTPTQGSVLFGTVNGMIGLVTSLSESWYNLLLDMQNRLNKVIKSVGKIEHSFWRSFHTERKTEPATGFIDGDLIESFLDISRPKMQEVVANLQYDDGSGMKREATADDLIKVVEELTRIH
Sequence of human Cereblon WT GST-tagged protein (Q96SW2 whole entry): as the sequence (Q96SW2 whole entry) above
Sequence of GSPT1 protein (P15170 whole entry): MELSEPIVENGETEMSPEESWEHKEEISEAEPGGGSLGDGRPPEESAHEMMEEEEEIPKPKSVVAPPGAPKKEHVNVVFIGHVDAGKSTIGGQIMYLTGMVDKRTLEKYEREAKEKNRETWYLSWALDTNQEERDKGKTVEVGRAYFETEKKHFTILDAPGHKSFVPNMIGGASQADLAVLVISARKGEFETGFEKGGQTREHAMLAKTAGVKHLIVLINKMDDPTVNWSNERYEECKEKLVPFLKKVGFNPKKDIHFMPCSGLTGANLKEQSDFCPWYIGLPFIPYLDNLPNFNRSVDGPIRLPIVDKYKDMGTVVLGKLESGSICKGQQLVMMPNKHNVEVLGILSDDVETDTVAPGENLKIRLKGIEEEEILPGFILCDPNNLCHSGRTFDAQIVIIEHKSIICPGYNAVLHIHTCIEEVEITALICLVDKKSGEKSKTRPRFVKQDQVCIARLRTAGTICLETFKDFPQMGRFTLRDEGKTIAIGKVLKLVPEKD
Sequence of GSPT1 protein (Q96SW2 whole entry): as the sequence (Q96SW2 whole entry) above
Sequence of GSPT1 protein (Q16531 whole entry partner): as the sequence (Q16531 whole entry partner) above
Sequence of IKZF1 protein (Q13422 whole entry): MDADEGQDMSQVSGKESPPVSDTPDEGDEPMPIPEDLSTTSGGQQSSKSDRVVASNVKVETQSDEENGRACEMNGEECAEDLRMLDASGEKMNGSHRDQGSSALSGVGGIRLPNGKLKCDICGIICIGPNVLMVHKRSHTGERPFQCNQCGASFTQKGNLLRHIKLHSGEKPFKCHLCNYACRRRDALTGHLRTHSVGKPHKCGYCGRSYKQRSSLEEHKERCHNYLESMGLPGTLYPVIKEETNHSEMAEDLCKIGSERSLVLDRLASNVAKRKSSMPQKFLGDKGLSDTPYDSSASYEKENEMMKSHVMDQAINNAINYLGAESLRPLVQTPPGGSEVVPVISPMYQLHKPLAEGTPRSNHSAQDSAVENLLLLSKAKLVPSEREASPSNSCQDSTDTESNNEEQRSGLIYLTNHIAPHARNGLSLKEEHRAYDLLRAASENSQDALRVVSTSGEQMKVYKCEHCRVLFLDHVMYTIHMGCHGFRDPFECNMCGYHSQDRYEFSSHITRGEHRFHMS
Sequence of IKZF1 protein (Q96SW2 whole entry): as the sequence (Q96SW2 whole entry) above
Sequence of IKZF1 protein (Q16531 whole entry partner): as the sequence (Q16531 whole entry partner) above

Row | Structure (SMILES) | IC50 (MM.1S cells) | IC50 (Mino cells) | IC50 [1] | residual substrate protein level, IKZF1 (IKZF1 protein) | residual substrate protein level, IKZF3 (IKZF3 protein) | residual substrate protein level, GSPT1 (GSPT1 protein) | concentration at which significant degradation effects on IKZF1 protein are exhibited (FIG. 1) (IKZF1 protein; [2]) | concentration at which significant degradation effects on IKZF3 protein are exhibited (FIG. 1) (IKZF3 protein; [2]) | concentration at which significant degradation effects on GSPT1 protein are exhibited (FIG. 1) (GSPT1 protein; [2])
1 | O=C1CCC(N2Cc3cc(CN4CCN(C(=O)c5ccccc5-c5ccc(Cl)cc5)CC4)ccc3C2=O)C(=O)N1 (centres unmarked) [GT-03891, 3-(5-((4-(4′-chloro-[1,1′-biphenyl]-2-carbonyl)piperazin-1-yl)methyl)-1-oxoisoindolin-2-yl)piperidine-2,6-dione] | 0.1 to 0.5 µM | 0.1 to 0.5 µM | 0.23 µM | – | – | – | – | – | –
2 | O=C1CCC(N2C(=O)c3ccc(N4C5CCC4CN(Cc4ccccc4-c4ccc(Cl)cc4)C5)cc3C2=O)C(=O)N1 (centres unmarked) [GT-05370, 5-(3-((4′-chloro-[1,1′-biphenyl]-2-yl)methyl)-3,8-diazabicyclo[3.2.1]octan-8-yl)-2-(2,6-dioxopiperidin-3-yl)isoindoline-1,3-dione] | < 0.005 µM | – | – | B (B represents a residual substrate protein level of >50%) | A (A represents a residual substrate protein level of <50%) | A (A represents a residual substrate protein level of <50%) | – | – | –
3 | CC1(C)CCC(CN2CC3CC(C2)N3Cc2cc(F)c3c(c2)CN(C2CCC(=O)NC2=O)C3=O)=C(c2ccc(Cl)cc2)C1 (centres unmarked) [GT-05383, 3-(5-((3-((4′-chloro-5,5-dimethyl-3,4,5,6-tetrahydro-[1,1′-biphenyl]-2-yl)methyl)-3,6-diazabicyclo[3.1.1]heptan-6-yl)methyl)-7-fluoro-1-oxoisoindolin-2-yl)piperidine-2,6-dione] | 0.5 to 1 µM | – | 0.54 µM | B (B represents a residual substrate protein level of >50%) | B (B represents a residual substrate protein level of >50%) | A (A represents a residual substrate protein level of <50%) | – | – | –
4 | CC1(C)CCC(CN2CCCN(Cc3ccc4c(c3)CN(C3CCC(=O)NC3=O)C4=O)CC2)=C(c2ccc(Cl)cc2)C1 (centres unmarked) [GT-05396, 3-(5-((4-((4′-chloro-5,5-dimethyl-3,4,5,6-tetrahydro-[1,1′-biphenyl]-2-yl)methyl)-1,4-diazepan-1-yl)methyl)-1-oxoisoindolin-2-yl)piperidine-2,6-dione] | 0.1 to 0.5 µM | – | 0.59 µM | B (B represents a residual substrate protein level of >50%) | A (A represents a residual substrate protein level of <50%) | A (A represents a residual substrate protein level of <50%) | – | – | –
5 | CC1(C)CCC(C(=O)N2CC3CC2CN3Cc2ccc3c(c2)CN(C2CCC(=O)NC2=O)C3=O)=C(c2ccc(F)cc2)C1 (centres unmarked) [GT-05403, 3-(5-((5-(4′-fluoro-5,5-dimethyl-3,4,5,6-tetrahydro-[1,1′-biphenyl]-2-carbonyl)-2,5-diazabicyclo[2.2.1]heptan-2-yl)methyl)-1-oxoisoindolin-2-yl)piperidine-2,6-dione] | 0.005 to 0.01 µM | – | 0.55 µM | – | – | – | – | – | –
6 | CC1(C)CCC(CN2C3CC2CN(Cc2ccc4c(c2F)CN(C2CCC(=O)NC2=O)C4=O)C3)=C(c2ccc(Cl)cc2)C1 (centres unmarked) [GT-05529, 3-(5-((6-((4′-chloro-5,5-dimethyl-3,4,5,6-tetrahydro-[1,1′-biphenyl]-2-yl)methyl)-3,6-diazabicyclo[3.1.1]heptan-3-yl)methyl)-4-fluoro-1-oxoisoindolin-2-yl)piperidine-2,6-dione] | 0.1 to 0.5 µM | 0.5 to 1 µM | 0.35 µM | A (A represents a residual substrate protein level of <50%) | A (A represents a residual substrate protein level of <50%) | B (B represents a residual substrate protein level of >50%) | – | – | –
7 | O=C1CCC(N2Cc3cc(CN4CCN(Cc5cccc(-c6ccc(Cl)cn6)c5)CC4)ccc3C2=O)C(=O)N1 (centres unmarked) [GT-05596, 3-(5-((4-(3-(5-chloropyridin-2-yl)benzyl)piperazin-1-yl)methyl)-1-oxoisoindolin-2-yl)piperidine-2,6-dione] | – | 0.01 to 0.05 µM | 1.34 µM | A (A represents a residual substrate protein level of <50%) | A (A represents a residual substrate protein level of <50%) | B (B represents a residual substrate protein level of >50%) | < 3 nM | < 3 nM | < 3 nM
8 | O=C1CCC(N2Cc3c(ccc(CN4C5CC4CN(Cc4ccccc4-c4ccc(Cl)cc4)C5)c3F)C2=O)C(=O)N1 (centres unmarked) [GT-05608, 3-(5-((3-((4′-chloro-[1,1′-biphenyl]-2-yl)methyl)-3,6-diazabicyclo[3.1.1]heptan-6-yl)methyl)-4-fluoro-1-oxoisoindolin-2-yl)piperidine-2,6-dione] | – | 0.5 to 1 µM | 0.8 µM | B (B represents a residual substrate protein level of >50%) | A (A represents a residual substrate protein level of <50%) | A (A represents a residual substrate protein level of <50%) | – | – | –
9 | CC1(C)CCC(C(=O)N2CCC3(CC2)CN(Cc2ccc4c(c2)CN(C2CCC(=O)NC2=O)C4=O)C3)=C(c2ccc(Cl)cc2)C1 (centres unmarked) [GT-05656, 3-(5-((7-(4′-chloro-5,5-dimethyl-3,4,5,6-tetrahydro-[1,1′-biphenyl]-2-carbonyl)-2,7-diazaspiro[3.5]nonan-2-yl)methyl)-1-oxoisoindolin-2-yl)piperidine-2,6-dione] | 0.1 to 0.5 µM | – | 0.7 µM | B (B represents a residual substrate protein level of >50%) | A (A represents a residual substrate protein level of <50%) | B (B represents a residual substrate protein level of >50%) | – | – | –
10 | CC1(C)CCC(CN2CCC3(CC2)CN(Cc2ccc4c(c2)CN(C2CCC(=O)NC2=O)C4=O)C3)=C(c2ccc(Cl)cc2)C1 (centres unmarked) [GT-05677, 3-(5-((7-((4′-chloro-5,5-dimethyl-3,4,5,6-tetrahydro-[1,1′-biphenyl]-2-yl)methyl)-2,7-diazaspiro[3.5]nonan-2-yl)methyl)-1-oxoisoindolin-2-yl)piperidine-2,6-dione] | 0.05 to 0.1 µM | – | 1.23 µM | A (A represents a residual substrate protein level of <50%) | A (A represents a residual substrate protein level of <50%) | B (B represents a residual substrate protein level of >50%) | – | – | –
11 | O=C1CCC(N2Cc3cc(CN4CCN(Cc5ccc(-c6ccco6)o5)CC4)ccc3C2=O)C(=O)N1 (centres unmarked) [GT-05695, 3-(5-((4-([2,2′-bifuran]-5-ylmethyl)piperazin-1-yl)methyl)-1-oxoisoindolin-2-yl)piperidine-2,6-dione] | – | 0.1 to 0.5 µM | 0.25 µM | A (A represents a residual substrate protein level of <50%) | A (A represents a residual substrate protein level of <50%) | B (B represents a residual substrate protein level of >50%) | – | – | –
12 | O=C1CCC(N2Cc3cc(CN4CCN(Cc5ccc(-c6ccc[nH]6)cc5)CC4)ccc3C2=O)C(=O)N1 (centres unmarked) [GT-05734, 3-(5-((4-(4-(1H-pyrrol-2-yl)benzyl)piperazin-1-yl)methyl)-1-oxoisoindolin-2-yl)piperidine-2,6-dione] | – | 0.1 to 0.5 µM | 0.11 µM | B (B represents a residual substrate protein level of >50%) | A (A represents a residual substrate protein level of <50%) | B (B represents a residual substrate protein level of >50%) | – | – | –
13 | O=C1CCC(N2Cc3cc(CN4C5CCC4CN(C(=O)c4ccccc4-c4ccc(Cl)cc4)C5)ccc3C2=O)C(=O)N1 (centres unmarked) [GT-05788, 3-(5-((3-(4′-chloro-[1,1′-biphenyl]-2-carbonyl)-3,8-diazabicyclo[3.2.1]octan-8-yl)methyl)-1-oxoisoindolin-2-yl)piperidine-2,6-dione] | 0.05 to 0.1 µM | 0.1 to 0.5 µM | 0.5 µM | – | – | – | – | – | –
14 | O=C1CCC(N2Cc3cc(CN4CCN(Cc5ccc(-c6ccc(Cl)cn6)cc5)CC4)ccc3C2=O)C(=O)N1 (centres unmarked) [GT-05872, 3-(5-((4-(4-(5-chloropyridin-2-yl)benzyl)piperazin-1-yl)methyl)-1-oxoisoindolin-2-yl)piperidine-2,6-dione] | 0.5 to 1 µM | – | – | A (A represents a residual substrate protein level of <50%) | B (B represents a residual substrate protein level of >50%) | B (B represents a residual substrate protein level of >50%) | – | – | –
